Measurements taken from US7160733B2, “Ligand specific to β2-glycoprotein I and use thereof” (priority 2001, dated 2007).
Blank lines part the entries; values can stand above or below the molecule they belong to.

Assays:
[1] = test system: APS-1; assay: ELISA on solid-phase lipid-coated plate: binding of antibodies of APS patient serum APS-1; design: species or system human; conditions: Absorbance, mean ± SD, n = 3
Experimental: (§1) To eliminate endogenous β2-GPI in some experiments, serum samples were passed through a heparin-Sepharose column. The effluent was dialyzed against PBS and was used for ELISAs.
(§2) Synthesized oxLig-1 (50 μg/mL, 50 μL/well) was adsorbed by evaporation on a polystyrene plate (Immulon 1B; Dynex Technologies Inc.), and the plate was then blocked with 1% BSA. Serum samples (diluted 1:100 with PBS containing 0.3% BSA) were incubated in the wells with β2-GPI (15 μg/mL) or other proteins for one hour at room temperature. Antibody binding was detected with HRP-labeled anti-human IgG. Further steps were performed through a method as described in “anti-β2-GPI ELISA.”
(§3) CL (50 μg/mL, 50 μL/well) was adsorbed on a polystyrene plate (Immulon 1B), and further steps were performed through a method as described in “ELISA for antibodies against a protein-oxLig-1 complex.”

[2] = test system: WB-CAL-1; assay: ELISA on solid-phase lipid (ligand)-coated plate: WB-CAL-1 binding in presence of β2-GPI; design: species or system mouse
Experimental: (§4) Binding to extracted lipids: A microtiter plate (Immulon 1B, Dynex Technologies Inc.) was coated with lipids extracted from LDLs (50 μg/mL, 50 μL/well) by ethanol evaporation. The wells were blocked with PBS containing 1% BSA for one hour and the wells were incubated with 30 μg/mL of β2-GPI for one hour. Then, β2-GPI binding was detected using Cof-22 and HRP-labeled anti-mouse IgG antibodies. Alternatively, an anti-β2-GPI autoantibody (Cof-22, WB-CAL-1, or EY2C9) was diluted with a 0.3% BSA-containing PBS, and the diluted antibody was added to the coated plate (1.0 μg/mL, 100 μL/well) and incubated with β2-GPI (15 μg/mL) for one hour. The binding of the antibody was detected by an HRP-labeled anti-mouse IgG /or an anti-human IgM. The color was developed with H2O2 and o-phenylenediamine, and OD was measured at 490 nm. Between these steps, extensive washing were done using PBS containing 0.05% Tween 20.
as §2, §3

[3] = target: T1, β2-GPI (Homo sapiens, UniProt P02749); assay: ELISA on solid-phase lipid (ligand)-coated plate: β2-GPI binding detected with Cof-22; conditions: for β2-GPI binding to lipid: result in words (discussion)
T1 construct: β2-GPI was purified from normal human plasma as described in [35] with slight modification; from tissue; host or cells: pooled normal human plasma from healthy subjects
T1 sequence (P02749 20-345): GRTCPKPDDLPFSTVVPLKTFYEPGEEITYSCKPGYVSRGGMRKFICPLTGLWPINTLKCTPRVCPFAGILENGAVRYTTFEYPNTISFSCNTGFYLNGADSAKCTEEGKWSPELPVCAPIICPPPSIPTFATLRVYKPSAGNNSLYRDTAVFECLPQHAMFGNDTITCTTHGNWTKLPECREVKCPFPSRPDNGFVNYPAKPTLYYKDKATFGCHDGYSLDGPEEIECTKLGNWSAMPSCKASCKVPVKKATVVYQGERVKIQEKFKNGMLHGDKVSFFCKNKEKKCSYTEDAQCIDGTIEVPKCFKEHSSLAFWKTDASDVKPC
Experimental: as §4, §2, §3

[4] = test system: APS-2; assay: ELISA on solid-phase lipid-coated plate: binding of antibodies of APS patient serum APS-2; design: species or system human; conditions: Absorbance, mean ± SD, n = 3
Experimental: as §1, §2, §3

[5] = test system: EY2C9; assay: ELISA on solid-phase lipid (ligand)-coated plate: EY2C9 binding in presence of β2-GPI; design: species or system human
Experimental: as §4, §2, §3

[6] = test system: anti-β2-GPI antibodies; assay: ELISA of the anti-β2-GPI antibodies by use of a ligand-coated plate (results in words); type: binding; conditions: result in words
Experimental: as §4, §2

[7] = test system: J774A.1 cells; assay: Liposome binding to macrophages (3H-labeled liposomes, 4° C.); type: cell-based, murine; conditions: result in words
Experimental: FIG. 10. Effect of phosphatidylserine (PS) or oxLig-1 content on the binding of liposomes to macrophages. A monolayer of J774.A1 cells was incubated for 2 hours at 4° C. with Celgrosser-P medium containing ^3H-labeled liposomes (50 nmol lipid/well). Open circle represents PS-liposomes; closed circle represents PS-Chol-liposomes; open square represents oxLig-1-liposomes; and closed square represents oxLig-1-Chol-liposomes. Data are indicated as the mean± SD of triplicate samples.
FIG. 11. β2-GPI and anti-β2-GPI monoclonal antibody-dependent binding of ligand-containing liposomes to macrophage. A monolayer of J774.A1 cells was incubated for 2 hours at 4° C. with Celgrosser-P medium containing ^3H-labeled liposomes (50 nmol lipid/well) and WB-CAL-1, in the presence or absence of β2-GPI (200 μg/ml). • A: Binding of PS-liposomes (PS: 50 mol %,) to J774.A1. cells in the presence (closed square) or absence (open square) of β2-GPI (200 μg/ml) • B: Binding of oxLig-1-liposomes (oxLig-1: 40 mol %) to J774.A1 cells in the presence (black bar) or absence (white bar) of β2-GPI (200 μg/ml). • C: A monolayer of J774.A1 cells was incubated for 2 hours at 4° C. with Celgrosser-P medium containing ^3H-labeled synthesized oxLig-1-liposomes (50 nmol lipid/well) and WB-CAL-1, in the presence or absence of β2-GPI (200 μg/ml). Binding of synthesized oxLig-1-liposomes in the absence of β2-GPI and WB-CAL-1 (open circle), binding of synthesized oxLig-1-liposomes in the presence of β2-GPI (open square), binding of synthesized oxLig-1-liposomes in the presence of WB-CAL-1 (closed square), and binding of synthesized oxLig-1-liposomes in the presence of both β2-GPI and WB-CAL-1 (closed circle). Data are indicated as the mean ± SD of triplicate samples.
A monolayer of J774.A1 cells was incubated for 2 hours at 4° C. with Celgrosser-P medium containing [^3H]-labeled liposomes (containing a predetermined ligand, 50 nmol lipid/well). DPPS-containing liposomes (open squares), oxLig-1-containing liposomes (closed squares), oxLig-2-containing liposomes (closed circles), and 13-COOH-7KC-containing liposomes (closed triangles). Data are indicated as mean± SD of triplicate samples.
A monolayer of J774.A1 cells was incubated for 2 hours at 4° C. with Celgrosser-P medium containing [^3H]-labeled liposomes (containing a predetermined ligand (30 mmol %), 50 nmol lipid/well) and in the presence (black bars) or absence (white bars) of β2-GPI (200 μg/mL) and WB-CAL-1 ([…]).
A monolayer culture of murine macrophage-like cells (J774A.1) obtained from Riken Cell Bank (Tsukuba) was maintained in RPMI 1640 medium supplemented with 10% fetal carf serum (FCS). For binding experiments, the cells (8×10^5 cells/mL, RPMI1640) were dispensed in an amount of 1 mL/well into a 12-well culture plate (Sumitomo Bakelite Co., Ltd.) and were incubated for 24 hours at 37° C., then the culture broth was replaced with Celgrosser-P medium (Sumitomo Pharmaceutical Co.). After one hour of preincubation at 37° C., 50 μL of liposomes (50 nmol lipid/well) with or without β2-GPI (200 μg/mL) and WB-CAL-1 (100 μg/mL) were added to each culture, and the cells were incubated at 4° C. and/or 37° C. The wells were next washed with chilled PBS, and the cells were lysed by adding 1 mL of 0.1N NaOH. An aliquot was taken for determination of cellular proteins and of radioactivity associated with the cells. Protein concentration was determined in a manner as described above.

[8] = test system: β2-GPI; assay: ELISA on solid-phase lipid (ligand)-coated plate: β2-GPI binding detected with Cof-22; design: species or system human; conditions: Experiment 2; Absorbance, mean ± SD, n = 3; synthesized oxLig-1-solidified plate, added protein 15 μg/mL
Experimental: as §4, §2, §3

[9] = Experiment 1, solid-phase lipid, β2-GPI 15 μg/mL, serum with β2-GPI removed
[10] = Experiment 1, Absorbance, mean ± SD, n = 3, solid-phase lipid, β2-GPI 15 μg/mL
[11] = absorbance at 490 nm, mean ± SD (n = 3), solid-phase ligand not methylated
[12] = Experiment 2, synthesized oxLig-1-solidified plate, added protein 15 μg/mL
[13] = Experiment 2, Absorbance, mean ± SD, n = 3, synthesized oxLig-1-solidified plate, added protein 15 μg/mL

Molecule: CCCCC/C=C\C/C=C\C/C=C\C/C=C\CCCC(=O)O[C@H](COC(=O)CCCCCCCCCCCCCCC)COP(=O)([O-])OCC[N+](C)(C)C [PAPC, 1-Palmitoyl-2-arachidonoyl-phosphatidylcholine, reference compound]
- Binding of β2-GPI-dependent aCL, APS-1 [1, 9]: 0.000 ± 0.001
- Binding of β2-GPI-dependent aCL, WB-CAL-1 [2, 10]: 0.012 ± 0.001
- Binding of β2-GPI-dependent aCL, Cof-22 [3, 10]: 0.019 ± 0.003
- Binding of β2-GPI-dependent aCL, APS-2 [4, 9]: 0.010 ± 0.002
- Binding of β2-GPI-dependent aCL, EY2C9 [5, 10]: 0.011 ± 0.003

- binding of the three antibodies (WB-CAL-1, EY2C9, mouse monoclonal anti-β2-GPI antibody) to immobilized lipid [6]: did not bind
- β2-GPI binding to lipid [3]: did not bind
Molecule: CC(C)CCC[C@@H](C)[C@H]1CC[C@H]2[C@@H]3CC=C4C[C@@H](O)CC[C@]4(C)[C@H]3CC[C@]12C [cholesterol, Cholesterol, reference compound]

Molecule: CC(C)CCC[C@@H](C)[C@H]1CC[C@H]2[C@@H]3C(=O)C=C4C[C@@H](OC(=O)CCCCCCCC(=O)CCC(=O)O)CC[C@]4(C)[C@H]3CC[C@]12C [oxLig-2, 4,12-dioxo-12-(7-ketocholest-5-en-3β-yloxy)dodecanoic acid]
- direct binding of liposomes to macrophages ([7]; J774A.1 cells, 2 hours at 4° C., 50 nmol lipid/well, without β2-GPI and antibody): relatively low or negligible small
- binding of liposomes to macrophages after methylation of the ligand ([7]; liposomes containing methylated ligand, with β2-GPI and WB-CAL-1, FIGS. 20C and 20D): substantially no binding
- uptake of ligand-containing liposomes to J774A.1 cells in the presence of both β2-GPI and WB-CAL-1 ([7]; liposomes containing the ligand, compared with cholesteryl linoleate-liposomes (control), FIG. 20): significantly enhanced
- WB-CAL-1 binding, No treatment [2, 11]: 0.518 +/− 0.023
- binding of the anti-β2-GPI autoantibodies (WB-CAL-1 and EY2C9) to solid-phase ligand ([6]; ligand-coated plate): significant binding
- β2-GPI binding (Cof-22 binding), No treatment [3, 11]: 1.002 +/− 0.084
- β2-GPI binding to lipid [3]: significant bonding
- EY2C9 binding, No treatment [5, 11]: 1.018 +/− 0.121

- Binding of protein-dependent oxLig-1 antibody, APS-1 [1, 12]: 1.043 ± 0.054
- Binding of protein-dependent oxLig-1 antibody, WB-CAL-1 [2, 13]: 0.812 ± 0.023
- Binding of protein-dependent oxLig-1 antibody, Cof-22 [8]: 1.007 ± 0.031
- Binding of protein-dependent oxLig-1 antibody, APS-2 [4, 12]: 0.755 ± 0.024
- Binding of protein-dependent oxLig-1 antibody, EY2C9 [5, 13]: 1.147 ± 0.028
B1: β2-GPI: β2-Glycoprotein I purified from normal human plasma (protein, UniProt P02749 20-345, looked up)
Beta-2-glycoprotein 1: GRTCPKPDDLPFSTVVPLKTFYEPGEEITYSCKPGYVSRGGMRKFICPLTGLWPINTLKCTPRVCPFAGILENGAVRYTTFEYPNTISFSCNTGFYLNGADSAKCTEEGKWSPELPVCAPIICPPPSIPTFATLRVYKPSAGNNSLYRDTAVFECLPQHAMFGNDTITCTTHGNWTKLPECREVKCPFPSRPDNGFVNYPAKPTLYYKDKATFGCHDGYSLDGPEEIECTKLGNWSAMPSCKASCKVPVKKATVVYQGERVKIQEKFKNGMLHGDKVSFFCKNKEKKCSYTEDAQCIDGTIEVPKCFKEHSSLAFWKTDASDVKPC
